Source: ChEMBL document CHEMBL1140287, “Reversion of human Pgp-dependent multidrug resistance by new sesquiterpenes from Zinowiewia costaricensis” (J Med Chem, 2005)

What was measured:
[1] = system: NIH3T3; test: Concentration of compound inhibiting Pgp-mediated DNM transport in NIH3T3 cells transfected with human MDR1 protein; format: functional, cell-based
[2] = system: NIH3T3
[3] = system: NIH3T3; remark: listed apart in the source
[4] = system: NIH3T3; remark: listed apart in the source
[5] = system: NIH3T3; remark: listed apart in the source
[6] = system: NIH3T3; remark: listed apart in the source
[7] = system: NIH3T3; remark: listed apart in the source

Row | Structure (SMILES) | Ki [1] | Reversal ability [2] | Reversal ability [3] | Reversal ability [4] | Reversal ability [5] | Reversal ability [6] | Reversal ability [7]
1 | CC(=O)OC[C@]12[C@H](OC(=O)c3ccccc3)C(=O)[C@@H]3[C@@H](OC(C)=O)[C@]1(OC3(C)C)[C@@](C)(O)C[C@H](OC(C)=O)[C@@H]2OC(=O)c1ccccc1 | 3010 nM | – | – | – | – | – | –
2 | CC(=O)O[C@H]1C[C@](C)(O)[C@]23OC(C)(C)[C@H]([C@H](OC(=O)c4ccccc4)[C@H](OC(=O)c4ccccc4)[C@]2(C)[C@H]1OC(=O)c1ccccc1)[C@H]3OC(C)=O | 913 nM | 90.39 | 8.26 | 87.04 | 9.55 | 12.72 | 16.55
3 | CC(=O)OC[C@]12[C@H](OC(C)=O)C(=O)[C@@H]3[C@@H](OC(C)=O)[C@]1(OC3(C)C)[C@@](C)(O)[C@@H](OC(C)=O)[C@H](OC(C)=O)[C@@H]2OC(=O)c1ccccc1 | 6520 nM | – | – | – | – | – | –
4 | CC(=O)OC[C@]12[C@@H](OC(=O)c3ccccc3)C[C@@H]3[C@@H](OC(C)=O)[C@]1(OC3(C)C)[C@@](C)(O)C[C@H](OC(C)=O)[C@@H]2OC(C)=O | 4390 nM | – | – | – | – | – | –
5 | CC(=O)OC[C@]12[C@H](OC(=O)c3ccccc3)C(=O)[C@@H]3[C@@H](OC(C)=O)[C@]1(OC3(C)C)[C@H](C)C[C@H](OC(C)=O)[C@@H]2OC(C)=O | 2540 nM | – | – | – | – | – | –
6 | CC(=O)O[C@@H]1[C@H]2[C@H](O)[C@H](OC(=O)c3ccccc3)[C@]3(C)[C@@H](OC(=O)c4ccccc4)[C@@H](OC(=O)c4ccccc4)C[C@](C)(O)[C@@]13OC2(C)C | 1210 nM | 57.32 | 6.32 | 41.23 | 11.13 | 15.86 | 5.38
7 | CC(=O)OC[C@]12[C@H](OC(=O)c3ccccc3)C(=O)[C@@H]3[C@@H](OC(C)=O)[C@]1(OC3(C)C)[C@@](C)(O)C[C@H](OC(=O)c1ccccc1)[C@@H]2OC(=O)c1ccccc1 | 1030 nM | 33.1 | 9.93 | 8.09 | 15.41 | 16.64 | 7.31
8 | CC(=O)OC[C@]12[C@H](OC(=O)c3ccccc3)C(=O)[C@@H]3[C@@H](OC(C)=O)[C@]1(OC3(C)C)[C@H](C)C[C@H](OC(C)=O)[C@@H]2O | 18400 nM | – | – | – | – | – | –
9 | CC(=O)O[C@H]1C[C@](C)(O)[C@]23OC(C)(C)[C@H]([C@H](OC(=O)c4ccccc4)[C@H](OC(=O)c4ccccc4)[C@]2(CO)[C@H]1OC(C)=O)[C@H]3OC(C)=O | 7040 nM | – | – | – | – | – | –
10 | CC(=O)OC[C@]12[C@H](OC(C)=O)C(=O)[C@@H]3[C@@H](OC(C)=O)[C@]1(OC3(C)C)[C@H](C)C[C@H](OC(C)=O)[C@@H]2OC(=O)c1ccccc1 | 5740 nM | – | – | – | – | – | –
11 | CC(=O)OC[C@]12[C@H](OC(=O)c3ccccc3)C(=O)[C@@H]3[C@@H](O)[C@]1(OC3(C)C)[C@@](C)(O)C[C@H](OC(C)=O)[C@@H]2OC(=O)c1ccccc1 | 3970 nM | – | – | – | – | – | –
12 | CC(=O)OC[C@]12[C@@H](OC(=O)c3ccccc3)C[C@@H]3[C@@H](OC(C)=O)[C@]1(OC3(C)C)[C@H](C)C[C@H](OC(C)=O)[C@@H]2OC(C)=O | 2360 nM | – | – | – | – | – | –
13 | CC(=O)OC[C@]12[C@@H](OC(=O)c3ccccc3)[C@@H](OC(=O)c3ccccc3)[C@@H]3[C@@H](OC(C)=O)[C@]1(OC3(C)C)[C@@](C)(O)C[C@H](OC(C)=O)[C@@H]2OC(C)=O | 1740 nM | 233.6 | 4.26 | 102.17 | 10.78 | 11.13 | 6.23
14 | CC(=O)OC[C@]12[C@H](OC(C)=O)C(=O)[C@@H]3[C@@H](OC(C)=O)[C@]1(OC3(C)C)[C@H](C)C[C@H](OC(C)=O)[C@@H]2OC(C)=O | 9830 nM | – | – | – | – | – | –
15 | CC(=O)OC[C@]12[C@@H](OC(=O)c3ccccc3)[C@@H](OC(=O)c3ccccc3)[C@@H]3[C@@H](OC(C)=O)[C@]1(OC3(C)C)[C@H](C)C[C@H](OC(C)=O)[C@@H]2OC(C)=O | 1710 nM | – | – | – | – | – | –
16 | CC(=O)OC[C@]12[C@H](OC(=O)c3ccccc3)C(=O)[C@@H]3[C@@H](OC(C)=O)[C@]1(OC3(C)C)[C@H](C)C[C@H](OC(C)=O)[C@@H]2OC(=O)c1ccccc1 | 1630 nM | 233.37 | 4.21 | 213.64 | 6.21 | 11.75 | 5.72
17 | COc1ccc(CCN(C)CCCC(C#N)(c2ccc(OC)c(OC)c2)C(C)C)cc1OC (configuration not stated) | – | 18.76 | 6.12 | 13.18 | 9.55 | 10.2 | 6.21
